Assay results: ChEMBL document CHEMBL1130170, “Orally active trifluoromethyl ketone inhibitors of human leukocyte elastase” (J Med Chem, 1997)
Where a SMILES comes first, the peptide text is derived from it. The star is where a group is joined. CF3 = FC(F)(F)*; Moc = COC(=O)*

Columns and labels:
[1] = Half-life of compound in plasma of rat; format: ADME, organism-based
[2] = target: T1, Neutrophil elastase (Homo sapiens, UniProt P08246); assay: Binding affinity for human leukocyte elastase
T1 sequence (P08246 whole entry): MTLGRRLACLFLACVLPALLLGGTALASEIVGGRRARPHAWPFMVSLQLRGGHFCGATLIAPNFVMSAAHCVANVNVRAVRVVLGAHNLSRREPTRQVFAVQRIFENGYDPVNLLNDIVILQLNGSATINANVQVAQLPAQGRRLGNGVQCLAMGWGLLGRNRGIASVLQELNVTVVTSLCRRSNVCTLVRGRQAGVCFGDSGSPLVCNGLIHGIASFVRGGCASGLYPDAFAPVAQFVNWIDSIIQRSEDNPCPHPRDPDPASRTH

[3] = Oral integrated area under the concentration vs time curve, for compound in dog plasma; format: ADME, organism-based, Canis lupus familiaris
[4] = Time of maximum concentration of compound in hamster plasma.; format: ADME, organism-based; conditions: cricetinae
[5] = target: Plasma kallikrein (Homo sapiens, UniProt P03952); assay: Binding affinity for human plasma kallikrein; No inhibition at 188 uM (highest concentration tested); format: cell-free
Plasma kallikrein, sequence (P03952 20-390 limits assumed): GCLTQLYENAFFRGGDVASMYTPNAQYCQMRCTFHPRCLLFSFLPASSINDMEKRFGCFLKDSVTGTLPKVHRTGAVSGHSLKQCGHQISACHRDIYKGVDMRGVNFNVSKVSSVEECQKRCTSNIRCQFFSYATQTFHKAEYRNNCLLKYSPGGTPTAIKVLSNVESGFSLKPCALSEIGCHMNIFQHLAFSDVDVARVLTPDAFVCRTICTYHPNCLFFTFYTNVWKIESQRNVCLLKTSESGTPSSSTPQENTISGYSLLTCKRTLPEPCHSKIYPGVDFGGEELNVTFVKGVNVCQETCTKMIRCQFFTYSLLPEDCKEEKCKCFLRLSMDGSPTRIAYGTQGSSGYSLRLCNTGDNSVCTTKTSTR
Plasma kallikrein, sequence (P03952 391-638 limits assumed): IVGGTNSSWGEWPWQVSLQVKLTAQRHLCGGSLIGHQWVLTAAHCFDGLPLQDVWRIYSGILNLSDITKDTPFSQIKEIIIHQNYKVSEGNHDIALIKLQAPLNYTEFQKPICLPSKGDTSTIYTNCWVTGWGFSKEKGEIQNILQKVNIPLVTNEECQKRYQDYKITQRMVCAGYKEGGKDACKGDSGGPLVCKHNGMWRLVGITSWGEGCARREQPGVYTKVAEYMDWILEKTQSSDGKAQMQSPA

[6] = Time of maximum concentration of compound in dog plasma.; format: ADME, organism-based, Canis lupus familiaris
[7] = system: Cricetinae gen. sp.; assay: Percent inhibition of elastase-induced lung damage by 10 mg/kg dosed orally, 30 minutes prior to the instillation of 50 ug of elastase; format: functional, Cricetulus griseus
[8] = target: T2, Mast cell carboxypeptidase A (Homo sapiens, UniProt P15088); assay: Binding affinity for carboxypeptidase A; No inhibition at 188 uM (highest concentration tested)
T2 sequence (P15088 whole entry): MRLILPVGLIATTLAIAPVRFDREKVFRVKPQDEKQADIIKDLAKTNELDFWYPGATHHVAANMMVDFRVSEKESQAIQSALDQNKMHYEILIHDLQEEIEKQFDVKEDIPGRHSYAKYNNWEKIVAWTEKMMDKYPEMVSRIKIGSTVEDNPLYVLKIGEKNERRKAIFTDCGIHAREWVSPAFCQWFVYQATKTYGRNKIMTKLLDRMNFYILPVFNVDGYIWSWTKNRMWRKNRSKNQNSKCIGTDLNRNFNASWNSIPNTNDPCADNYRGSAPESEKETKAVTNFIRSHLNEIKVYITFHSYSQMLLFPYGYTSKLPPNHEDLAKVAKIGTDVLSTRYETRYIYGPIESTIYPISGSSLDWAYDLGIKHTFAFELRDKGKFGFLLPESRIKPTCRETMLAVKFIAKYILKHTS

[9] = Bioavailability in hamster; format: ADME, organism-based, Cricetulus griseus; conditions: chinese hamster, in vivo
[10] = Half-life of compound in plasma of dog; format: ADME, organism-based, Canis lupus familiaris
[11] = target: Kallikrein-1 (Homo sapiens, UniProt P06870); assay: Binding affinity for human urine kallikrein; No inhibition at 188 uM (highest concentration tested)
Kallikrein-1, sequence (P06870 whole entry): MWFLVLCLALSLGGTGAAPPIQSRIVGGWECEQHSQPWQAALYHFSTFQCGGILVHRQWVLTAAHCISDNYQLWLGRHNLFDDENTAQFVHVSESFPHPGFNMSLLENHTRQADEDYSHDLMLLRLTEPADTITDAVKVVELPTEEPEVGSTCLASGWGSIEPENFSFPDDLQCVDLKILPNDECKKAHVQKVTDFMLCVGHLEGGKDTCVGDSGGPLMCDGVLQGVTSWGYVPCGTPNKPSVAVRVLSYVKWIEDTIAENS

[12] = Ratio of intravenous to oral integrated area under the concentration vs time curve, for compound in dog plasma; format: ADME, organism-based, Canis lupus familiaris
[13] = target: T3, Cathepsin G (Homo sapiens, UniProt P08311); assay: Binding affinity for human leukocyte cathepsin G; No inhibition at 188 uM (highest concentration tested)
T3 sequence (P08311 whole entry): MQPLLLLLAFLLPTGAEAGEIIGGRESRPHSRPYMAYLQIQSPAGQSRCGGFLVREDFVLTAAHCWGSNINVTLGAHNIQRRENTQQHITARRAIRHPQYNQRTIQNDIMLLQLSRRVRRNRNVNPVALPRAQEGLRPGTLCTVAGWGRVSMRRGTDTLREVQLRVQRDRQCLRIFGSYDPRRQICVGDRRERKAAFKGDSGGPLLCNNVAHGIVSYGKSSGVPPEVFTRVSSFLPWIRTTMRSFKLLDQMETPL

[14] = Half-life of compound in plasma of hamster; format: ADME, organism-based; conditions: cricetinae
[15] = target: T4, Serine protease 1 (Homo sapiens, UniProt P07477); assay: Binding affinity for human pancreatic trypsin
T4 sequence (P07477 whole entry): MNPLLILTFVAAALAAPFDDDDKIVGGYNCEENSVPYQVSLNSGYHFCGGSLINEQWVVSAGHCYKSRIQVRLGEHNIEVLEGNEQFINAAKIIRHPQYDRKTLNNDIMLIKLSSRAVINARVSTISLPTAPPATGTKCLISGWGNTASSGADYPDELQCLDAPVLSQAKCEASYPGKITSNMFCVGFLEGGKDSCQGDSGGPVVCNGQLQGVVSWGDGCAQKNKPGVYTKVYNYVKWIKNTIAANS

[16] = Maximum concentration of the unchanged compound in dog plasma, recorded in the period 0-6 hr post dose.; format: ADME, organism-based, Canis lupus familiaris
[17] = target: T5, Monoamine oxidase (Homo sapiens, UniProt P21397+P27338); assay: Binding affinity for human plasma monoamine oxidase; No inhibition at 188 uM (highest concentration tested); format: cell-free
T5 sequence (P21397 whole entry): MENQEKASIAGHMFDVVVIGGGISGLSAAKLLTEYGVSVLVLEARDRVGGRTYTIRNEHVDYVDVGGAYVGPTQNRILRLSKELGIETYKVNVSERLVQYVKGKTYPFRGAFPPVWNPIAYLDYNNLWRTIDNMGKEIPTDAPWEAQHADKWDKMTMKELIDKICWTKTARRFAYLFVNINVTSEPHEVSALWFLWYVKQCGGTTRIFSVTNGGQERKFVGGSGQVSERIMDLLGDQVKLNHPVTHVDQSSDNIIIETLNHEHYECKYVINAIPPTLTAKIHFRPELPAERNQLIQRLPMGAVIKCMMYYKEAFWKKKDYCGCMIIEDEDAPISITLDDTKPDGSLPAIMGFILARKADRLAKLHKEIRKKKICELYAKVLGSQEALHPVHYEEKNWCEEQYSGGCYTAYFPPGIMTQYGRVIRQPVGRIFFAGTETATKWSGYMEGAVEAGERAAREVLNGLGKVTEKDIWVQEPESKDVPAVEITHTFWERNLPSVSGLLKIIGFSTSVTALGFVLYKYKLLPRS
T5 sequence (P27338 whole entry): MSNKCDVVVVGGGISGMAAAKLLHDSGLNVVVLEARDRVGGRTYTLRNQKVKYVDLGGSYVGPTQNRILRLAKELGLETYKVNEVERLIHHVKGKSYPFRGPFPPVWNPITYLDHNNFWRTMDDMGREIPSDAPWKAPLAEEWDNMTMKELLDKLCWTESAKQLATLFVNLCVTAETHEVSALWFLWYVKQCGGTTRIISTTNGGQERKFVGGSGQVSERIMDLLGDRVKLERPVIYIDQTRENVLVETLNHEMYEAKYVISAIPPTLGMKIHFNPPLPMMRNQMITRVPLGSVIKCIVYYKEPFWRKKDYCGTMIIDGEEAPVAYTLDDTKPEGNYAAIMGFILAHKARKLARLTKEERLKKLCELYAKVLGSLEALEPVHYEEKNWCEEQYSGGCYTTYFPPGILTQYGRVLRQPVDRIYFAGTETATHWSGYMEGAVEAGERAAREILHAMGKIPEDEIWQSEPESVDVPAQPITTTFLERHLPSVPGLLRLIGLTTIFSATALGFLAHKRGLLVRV

[18] = target: Acetylcholinesterase (Homo sapiens, UniProt P22303); assay: Binding affinity for human erythrocyte Acetylcholinesterase; No inhibition at 188 uM (highest concentration tested)
Acetylcholinesterase, sequence (P22303 whole entry): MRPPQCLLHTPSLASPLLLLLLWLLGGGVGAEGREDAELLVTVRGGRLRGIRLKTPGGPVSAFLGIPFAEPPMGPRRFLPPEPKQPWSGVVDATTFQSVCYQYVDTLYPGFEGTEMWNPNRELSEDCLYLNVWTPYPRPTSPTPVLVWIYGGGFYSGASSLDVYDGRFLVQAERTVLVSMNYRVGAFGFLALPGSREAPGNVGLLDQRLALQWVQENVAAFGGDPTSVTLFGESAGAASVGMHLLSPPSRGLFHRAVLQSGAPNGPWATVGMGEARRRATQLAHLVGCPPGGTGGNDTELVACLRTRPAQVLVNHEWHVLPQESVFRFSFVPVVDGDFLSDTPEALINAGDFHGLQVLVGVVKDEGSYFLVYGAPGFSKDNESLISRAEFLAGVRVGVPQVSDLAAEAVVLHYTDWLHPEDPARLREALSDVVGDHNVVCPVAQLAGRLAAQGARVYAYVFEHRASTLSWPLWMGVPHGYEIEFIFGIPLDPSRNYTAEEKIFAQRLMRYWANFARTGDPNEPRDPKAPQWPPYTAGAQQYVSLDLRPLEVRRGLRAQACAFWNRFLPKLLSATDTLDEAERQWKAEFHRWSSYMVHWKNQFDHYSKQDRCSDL

[19] = target: T4, Serine protease 1; assay: Binding affinity for human pancreatic trypsin; […]
[20] = +Ratio of intravenous to oral integrated area under the concentration vs time curve, for compound in dog plasma; format: ADME, organism-based, Canis lupus familiaris

Row | SMILES | half-life [1] [min] | AUC [3] [ng·h/mL] | Tmax [4] [min] | Ki [5] | Tmax [6] [min] | bioavailability [9] [%] | half-life [10] [min] | Ki [11] | half-life [14] [min] | Cmax [16] [ng/mL] | Ki [17] | also measured
1 | COC(=O)N[C@H](C(=O)N1CCC[C@H]1C(=O)N[C@H](C(=O)C(F)(F)F)C(C)C)C(C)C (Moc-Val-Pro-Val-CF3) | 78 | 6540 | 15 | No inhibition | 19.8 | 75 | 48.6 | No inhibition | 120 | 5440 | No inhibition | Ki [2]: 0.013 µM; inhibition in vivo at 10 mg/kg ([7]; Cricetinae gen. sp., po): 92%; Ki [8]: No inhibition; bioavailability [12]: 70%; Ki [13]: No inhibition; Ki [15]: 66.6 µM
2 | COc1ccc(C(=O)N[C@H](C(=O)N2CCC[C@H]2C(=O)N[C@H](C(=O)C(F)(F)F)C(C)C)C(C)C)cc1 (stereo in doubt; 1k) | 49.2 | 1250 | 30 | No inhibition | 30 | 26 | 120 | No inhibition | 72 | 382 | No inhibition | Ki [18]: No inhibition; Inhibition ([7]; 10 mg/kg): 84%; Ki [19]: No inhibition; bioavailability [20]: 39%
